# From PMC5792594, “Engineering yeast for the production of breviscapine by genomic analysis and synthetic biology approaches” (Nature Communications, 2018)
# Test system: T1, EbF7GAT
# T1 construct: gene F7GAT; tag removal not mentioned
# Experiment: HPLC of glucuronide product, initial-rate kinetics
# Format: biochemical, Erigeron breviscapus
# Settings: UDP-glucuronic acid as donor (1 mM in standard assay), 50 mM Tris-HCl pH 7.5, 37 °C
SMILES,"Km (10 min, 0.1-20 µM apigenin)",Km (5-300 µM scutellarein)
O=c1cc(-c2ccc(O)cc2)oc2cc(O)cc(O)c12 [apigenin],9.24 µM,
O=c1cc(-c2ccc(O)cc2)oc2cc(O)c(O)c(O)c12 [scutellarein],,70.2 µM
